{"source": "patent US5683987A", "about": "“Therapeutic oligonucleotides targeting the human MDR1 and MRP genes” (The Board of Regents of the University of Nebraska, priority 1995, dated 1997)", "key": {"[1]": {"tested_on": "CEM/VLB10 human leukemia cells", "test": "Sensitization of CEM/VLB10 cells to Vincristine by MDR-oligos in 5% oxygen", "assay_type": "cell-based", "details": "for IC50: read-out: IC50 dose", "description": "(§1) As shown in this example, several oligos which target the MDR1 gene are able to sensitize multidrug-resistant cell lines to the cytotoxic effects of the chemotherapeutic agent Vincristine. Tumor cells were treated in vitro with 10 μM of the indicated oligo for 4 days at 37° C., then counted, dispensed into individual tubes, and pulsed with Vincristine at various doses (serial 5-fold dilutions) for 3 hrs. The cells were then washed and seeded into 96-well plates (quadruplicate replicates) for pulsing with tritiated thymidine 3 days later. Cells were harvested the next day (=4th day after drug treatment). Tritiated thymidine uptake was analyzed by liquid scintillation."}, "[2]": {"tested_on": "8226/Dox human myeloma cells", "test": "Sensitization of 8226/Dox cells to Vincristine by MDR-oligos in 5% oxygen", "assay_type": "cell-based", "details": "for IC50: read-out: IC50 dose", "description": "as §1"}, "[3]": {"tested_on": "8226/Dox cells", "test": "Sensitization of 8226/Dox cells to Vincristine by an MRP-oligo and MDR-ODNs", "assay_type": "cell-based, human", "details": "for IC50: read-out: IC50 dose", "description": "as §1\nIn this example, experimental conditions were identical to those utilized in obtaining the data in Example 2."}, "[4]": {"tested_on": "8226/Dox human myeloma cells", "test": "Sensitivity of 8226/Dox cells to Vincristine with increasing time after Vincristine exposure", "assay_type": "cell-based", "details": "for IC50: Homo sapiens; for Relative Sensitization (fold increase) Day 5: Day 5 after Vincristine exposure; for Relative Sensitization (fold increase) Day 7: Day 7 after Vincristine exposure; for Relative Sensitization (fold increase) Day 9: Day 9 after Vincristine exposure", "description": "as §1, with “Tumor cells were treated in vitro with 10 μM of the indicated oligo for 4 days at 37° C., then counted, dispensed into individual tubes, and pulsed with Vincristine at various doses (serial 5-fold dilutions) for 3 hrs.” left out\nAs shown in this example, it was determined that there was an increase in sensitivity of multidrug-resistant 8226/Dox human myeloma cells to Vincristine with increasing time of incubation following initial exposure to Vincristine. The experimental conditions were identical to those utilized in obtaining the data shown in Table 7, except that the present experiment had two additional time points."}, "[5]": {"tested_on": "8226/Dox4 human myeloma cells", "test": "Vincristine IC50 summary after MDR-oligo treatment", "assay_type": "cell-based", "details": "Homo sapiens, read-out: Vincristine IC50", "description": "(§2) In vitro testing of MDR-Oligonucleotides was done on the multidrug-resistant (MDR+) RPMI-8226/Dox4 human multiple myeloma cell line (gift of Dr. William Dalton, Univ. Arizona Cancer Ctr., Tucson). Cells were incubated in vitro for 4 days at 37° C. with MDR-oligos at 0.2 μM final concentration; pulsed 18 hr with serial 5-fold dilutions of chemotherapeutic drug (vincristine) from 1×10^-4 M to 2×10^-10 M. Cells were then washed, and incubated for an additional 4 days. Tritiated thymidine (^3 H-TdR) was added for last 18 hr to measure status of cellular proliferation. Controls included MDR^+ 8226 cells similarly treated with vincristine but pretreated either with (a) control ODNs, or (b) culture medium only."}, "[6]": {"tested_on": "8226/Dox cells", "test": "Sensitization of 8226/Dox cells to VCR by MDR-aptameric oligonucleotides", "assay_type": "cell-based, human", "details": "for Fold Increase in Drug Sensitization: compared to media control"}, "[7]": {"tested_on": "8226/Dox4 cells", "test": "Parsimonious regression model estimates of count and Vincristine IC50", "assay_type": "cell-based, human", "details": "Homo sapiens, read-out: Estimated IC50", "description": "as §2\nThe following mathematical/statistical model was used to analyze the effects of oligos and various drug treatments on targeted tumor cells in these studies. The model is based on experiments which generally involve treatment of tumor cells with one of several ODNs or media only, and with several dose levels of an anti-cancer agent (such as, for example, vincristine (VCR)) or media only. Analysis goals were to model the relationship of cell kill to the dose of VCR (for example), and to compare the effects of the various ODNs.\nThis final model contained 10 regressor variables.\nVarious estimates of parameters from the parsimonious model are shown in TABLE 13, which contains the model estimate of the count for each ODN with media only; differences here (when compared to \"media only\" [no ODN]) reflect the cell kill associated with the ODN alone. TABLE 13 also contains an estimate of IC50 values, the dose of vincristine (VCR) which is estimated to produce an expected count which is exactly half that expected with \"media only\" [no VCR]. While formal statistical comparisons of the IC50 values of the various ODNs is not possible, an ordering of the ODNs by estimated IC50 values is possible."}, "[8]": {"tested_on": "8226/Dox cells", "test": "Sensitization of 8226/Dox cells to doxorubicin by MDR-oligos (tritiated thymidine uptake)", "assay_type": "cell-based, human", "details": "for IC50: read-out: IC50 dose", "description": "Multidrug resistant tumor cells were incubated with 15 μM of OL(6)mdr oligo, Cohen(1)mdr oligo or a negative-control (HIV-2) oligo for 4 days at 37° C. in a humidified incubation chamber. Varying doses (5-fold serial dilutions) of doxorubicin (from 1×10^-5 M to 1×10^-8 M) were then added to the culture wells after the cells had been subcultured into media without oligos; cells were then incubated in the same culture environment for an additional three days. Radiolabeled (tritiated) thymidine was added to all cultures for 24 hr before harvest. Each data point is the mean of 4 replicates."}, "[9]": {"tested_on": "A427 human non-small-cell lung adenocarcinoma cell line", "test": "Sensitization of A427 lung cancer cells to etoposide by MRP-oligos", "assay_type": "cell-based", "description": "The human non-small-cell lung adenocarcinoma cell line A427 was treated with oligos at various concentrations for 4 days in vitro. The cells then were pulsed with various concentrations of etoposide (range 1.6×10^-4 to 1×10^-6 M) for 3 hrs. Next, cells were trypsinized and seeded by volume into 96-well plates with 12 replicates per treatment condition. Three days later, tritiated thymidine was added and the cells harvested the next day."}, "[10]": {"tested_on": "RPMI-8226/Dox4 human multiple myeloma cell line", "test": "Relative activity of MRP-ODNs (summary)", "assay_type": "cell-based", "parameters": "key: --: no effect; +: weak positive effect; +++++: strong positive effect"}, "[11]": {"details": "Vincristine IC50 after 4 days with 10 μM oligo, 5% oxygen"}, "[12]": {"details": "to Vincristine, 10 μM oligo, 5% oxygen"}}, "note": "“And” between values parts separate entries of the source, which are not always exact repeats. Identical values can stand only once. Like-named read-outs stand apart in the source and are kept apart here."}
{"molecule": "CC[C@]1(O)C[C@H]2CN(CCc3c([nH]c4ccccc34)[C@@](C(=O)OC)(c3cc4c(cc3OC)N(C=O)[C@H]3[C@@](O)(C(=O)OC)[C@H](OC(C)=O)[C@]5(CC)C=CCN6CC[C@]43[C@@H]65)C2)C1", "note": "[Vincristine, reference compound]", "values": [{"measurement": "IC50", "setting": "[1]; Homo sapiens", "result": 10000, "unit": "nM"}, {"measurement": "IC50", "setting": "[2]; Homo sapiens", "result": 450, "unit": "nM"}, {"measurement": "IC50", "setting": "[3]; Homo sapiens", "result": 1100, "unit": "nM"}, {"measurement": "IC50", "setting": "[4]; 120 h, read-out: IC50 Value on Day 5", "result": 440, "unit": "nM"}, {"measurement": "IC50", "setting": "[4]; 168 h, read-out: IC50 Value on Day 7", "result": 7000, "unit": "nM"}, {"measurement": "IC50", "setting": "[4]; 216 h, read-out: IC50 Value on Day 9", "result": 550000, "unit": "nM"}, {"measurement": "IC50", "setting": "[5]", "result": 12000, "unit": "nM"}, {"measurement": "IC50", "setting": "[6]; Homo sapiens, VCR, Media (no oligo)", "result": 40000, "unit": "nM"}, {"measurement": "IC50", "setting": "[7]", "result": 12800, "unit": "nM"}]}
{"molecule": "COc1cccc2c1C(=O)c1c(O)c3c(c(O)c1C2=O)C[C@@](O)(C(=O)CO)C[C@@H]3O[C@H]1C[C@H](N)[C@H](O)[C@H](C)O1", "note": "[doxorubicin, reference compound]", "values": [{"measurement": "IC50", "setting": "[8]; Homo sapiens", "result": 650, "unit": "nM"}]}
{"molecule": "MDR-APT-2: MDR-aptameric oligonucleotide, SEQ ID NO 89: TTCGCCTGATTTCCGCCTCCCGTCT (TTCGCCTGATTTCCGCCTCCCGTCT; chemistry not given here)", "values": [{"measurement": "Fold Increase in Drug Sensitization", "setting": "[6]", "result": "20,000 fold"}]}
{"molecule": "MDR-APT-3: MDR-aptameric oligonucleotide, SEQ ID NO 90: CGGTCCGTTA TGTTCCTG (CGGTCCGTTATGTTCCTG; chemistry not given here)", "values": [{"measurement": "Fold Increase in Drug Sensitization", "setting": "[6]", "result": "5,714 fold"}]}
{"molecule": "MDR-APT-4: MDR-aptameric oligonucleotide, SEQ ID NO 91: ACTCGCCTCCCACGTAGTGCTT (ACTCGCCTCCCACGTAGTGCTT; chemistry not given here)", "values": [{"measurement": "Fold Increase in Drug Sensitization", "setting": "[6]", "result": "> 40,000 fold"}]}
{"molecule": "OL(6)mdr: SEQ ID NO 1: CCCACGCCCC GGCGCTGTTC (CCCACGCCCCGGCGCTGTTC; chemistry not given here)", "values": [{"measurement": "IC50", "setting": "[1]; [11]", "result": 120, "unit": "nM"}, {"measurement": "Relative sensitization (fold increase)", "setting": "[1]; [12]", "result": 83, "unit": "fold increase"}, {"measurement": "IC50", "setting": "[2]; [11]", "result": 220, "unit": "nM"}, {"measurement": "Relative sensitization (fold increase)", "setting": "[2]; [12]", "result": 2.5, "unit": "fold increase"}, {"measurement": "IC50", "setting": "[8]; doxorubicin IC50 after 4 days with 15 μM oligo, tritiated thymidine uptake", "result": 180, "unit": "nM"}, {"measurement": "Relative sensitization (fold increase)", "setting": "[8]; to doxorubicin, 15 μM oligo, vs medium only", "result": 3.6, "unit": "fold increase"}, {"measurement": "Etoposide (VP-16) Relative Sensitization (fold increase)", "setting": "[9]; oligo 1 μM", "result": 0, "unit": "fold increase"}, {"measurement": "Etoposide (VP-16) Relative Sensitization (fold increase)", "setting": "[9]; oligo 2.5 μM", "result": 0, "unit": "fold increase"}, {"measurement": "Etoposide (VP-16) Relative Sensitization (fold increase)", "setting": "[9]; oligo 5.0 μM", "result": 1.2, "unit": "fold increase"}, {"measurement": "Etoposide (VP-16) Relative Sensitization (fold increase)", "setting": "[9]; oligo 10 μM", "result": 1.6, "unit": "fold increase"}, {"measurement": "Relative Sensitization (fold increase) Day 5", "setting": "[4]; oligo 2 μM", "result": 1.6, "unit": "fold increase"}, {"measurement": "Relative Sensitization (fold increase) Day 7", "setting": "[4]; oligo 2 μM", "result": 3.5, "unit": "fold increase"}, {"measurement": "Relative Sensitization (fold increase) Day 9", "setting": "[4]; oligo 2 μM", "result": 61, "unit": "fold increase"}, {"measurement": "Relative Sensitization (fold increase) Day 5", "setting": "[4]; oligo 10 μM", "result": 1.8, "unit": "fold increase"}, {"measurement": "Relative Sensitization (fold increase) Day 7", "setting": "[4]; oligo 10 μM", "result": 15.9, "unit": "fold increase"}, {"measurement": "Relative Sensitization (fold increase) Day 9", "setting": "[4]; oligo 10 μM", "result": 550, "unit": "fold increase"}]}
{"molecule": "OL(8)MRP: SEQ ID NO 64: GCGGGATGAT GATGGCGGCG (GCGGGATGATGATGGCGGCG; chemistry not given here)", "values": [{"measurement": "IC50", "setting": "[3]; Vincristine IC50 after oligo treatment, conditions as Example 2", "result": 55, "unit": "nM"}, {"measurement": "Relative sensitization (fold increase)", "setting": "[3]; to Vincristine, vs medium only", "result": 20, "unit": "fold increase"}, {"measurement": "Etoposide (VP-16) Relative Sensitization (fold increase)", "setting": "[9]; oligo 2.5 μM", "result": 2.0, "unit": "fold increase"}, {"measurement": "Etoposide (VP-16) Relative Sensitization (fold increase)", "setting": "[9]; oligo 5.0 μM", "result": 3.6, "unit": "fold increase"}, {"measurement": "Etoposide (VP-16) Relative Sensitization (fold increase)", "setting": "[9]; oligo 10 μM", "result": "18 fold increase and 18.0 fold increase"}, {"measurement": "Relative Activity", "setting": "[10]", "result": "+++++"}]}
